B1: Myc-RAB17 (pcDNA3.1 Myc-His RAB17), exogenous RAB17 expressed in COS-7 cells (other)
chain: MAQAHRTPQPRAAPSQPRVFKLVLLGSGSVGKSSLALRYVKNDFKSILPTVGCAFFTKVVDVGATSLKLEIWDTAGQEKYHSVCHLYFRGANAALLVYDITRKDSFLKAQQWLKDLEEELHPGEVLVMLVGNKTDLSQEREVTFQEGKEFADSQKLLFMETSAKLNHQVSEVFNTVAQELLQRSDEEGQALRGDAAVALNKGPARQAKCCAH
notes: not shown: Myc-His tag of the pcDNA3.1 Myc-His vector

Assays:
[1] = test system: TSC1; experiment: si-TSC1 treatment of LC319 cells: TSC1 and TBC1D7 transcript and protein levels (semiquantitative RT-PCR, western blot); format: cell-based, human; details: for TBC1D7 protein level: LC319 cells treated with siRNA against TSC1, western blot
Method: Total RNA was extracted from cultured cells and clinical tissues using Trizol reagent (Life Technologies, Inc.) according to the manufacturer's protocol. Extracted RNAs were treated with DNase I (Nippon Gene) and reversely-transcribed using oligo (dT) primer and SuperScript II reverse transcriptase (Invitrogen). Semiquantitative RT-PCR experiments were carried out with the following synthesized TBC1D7-specific primers or with beta-actin (ACTB)-specific primers as an internal control: TBC1D7, 5′-[…]-3′ (SEQ ID NO.: 5) or 5′-[…]-3′ (SEQ ID NO.:15) and 5′-[…]-3′ (SEQ ID NO.: 6); TSC1, 5′-[…]-3′ (SEQ ID NO.:16) and 5′-[…]-3′ (SEQ ID NO.:17); ACTB, 5′-[…]-3′ (SEQ ID NO.: 7) and 5′-[…]-3′ (SEQ ID NO.: 8). PCR reactions were optimized for the number of cycles to ensure product intensity within the logarithmic phase of amplification.
Cells were lysed in lysis buffer; 50 mM Tris-HCl (pH 8.0), 150 mM NaCl, 0.5% NP-40, 0.5% deoxycholate-Na, 0.1% SDS, plus protease inhibitor (Protease Inhibitor Cocktail Set III; Calbiochem). It was used an ECL western-blotting analysis system (GE Healthcare Bio-sciences), as previously described (Takahashi K. et al. Cancer Res 2006; 66:9408-19).
Small interfering RNA (siRNA) duplexes (100 nM) were transfected into a NSCLC cell line, A549 and LC319, using 24 microL of Lipofectamine 2000 (Invitrogen) following the manufacturer's protocol. The transfected cells were cultured for 7 days, and the number of colonies was counted by Giemsa staining, and viability of cells was evaluated by 3-(4,5-dimethylthiazol-2-yl)-2,5-diphenyltetrazolium bromide (MTT) assay (cell counting kit-8 solution; Dojindo Laboratories), at 7 days after transfection. To confirm suppression of TBC1D7 and TSC1 expression, western blotting using antibodies to TBC1D7 and TSC1 as well as semiquantitative RT-PCR with synthesized primers specific for TBC1D7 and TSC1 were carried out as described above. SiRNA sequences against human TBC1D7 and TSC1 were as follows, si-TBC1D7#3: GAACAGUGCAGAGAAGAUA (SEQ ID NO.:18), si-TBC1D7#4: GAUAAAGUUGUGAGUGGAU (SEQ ID NO.:19), and si-TSC1: CGACACGGCUGAUAACUGA (SEQ ID NO.:20). The present inventors also designed siRNA oligonucleotides against control-1 (LUC: luciferase gene from Photinus pyralis), 5′-CGUACGCGGAAUACUUCGA-3′ (SEQ ID NO.:21) and control-2 (EGFP: enhanced green fluorescent protein (GFP) gene, a mutant of Aequorea victoria GFP), 5′-GAAGCAGCACGACUUCUUC-3′ (SEQ ID NO.:22).

[2] = test system: p-rpS6 (Ser235/236), downstream target of mTORC1; experiment: Effect of TSC1 knockdown on mTORC1 pathway in LC319 cells (phosphorylation of rpS6); format: cell-based, human; details: LC319 cells treated with siRNA against TSC1
[3] = biological target: T1, flag-TBC1D7 (exogenous TBC1D7 transiently expressed in COS-7 cells) (human, UniProt Q9P0N9 1-293); experiment: co-immunoprecipitation from COS-7 cells expressing flag-TBC1D7 and Myc-RAB17 (FIG. 4B)
T1 construct: The only full-length flag vector described is pCAGGSn3FC, with 3xflag at the C-terminus, so it may be the same construct as m2; The order of the parts is therefore uncertain
T1 sequence: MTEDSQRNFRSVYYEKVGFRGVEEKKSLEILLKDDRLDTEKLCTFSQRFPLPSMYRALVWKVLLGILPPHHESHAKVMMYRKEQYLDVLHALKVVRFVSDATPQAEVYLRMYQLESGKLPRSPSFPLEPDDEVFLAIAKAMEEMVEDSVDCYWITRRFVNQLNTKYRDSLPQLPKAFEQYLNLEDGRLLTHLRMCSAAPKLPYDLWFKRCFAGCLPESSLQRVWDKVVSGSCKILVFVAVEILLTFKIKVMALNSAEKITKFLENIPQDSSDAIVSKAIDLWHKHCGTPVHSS
Method: FIG. 4 depicts interaction of TBC1D7 with binding proteins. A, Interaction of exogenous TBC1D7 with endogenous 14-3-3 zeta protein in COS-7 cells. Immunoprecipitations were carried out using anti-flag M2 agarose and extracts from COS-7 cells transiently expressing flag-TBC1D7. Immunoprecipitates were subjected to western-blot analysis to detect endogenous 14-3-3. B, Interaction of exogenous TBC1D7 with exogenous RAB 17 protein in COS-7 cells. Immunoprecipitations were carried out using anti-flag M2 agarose and extracts from COS-7 cells transiently expressing flag-TBC1D7 and/or Myc-RAB17. Immunoprecipitates were subjected to western-blot analysis to detect exogenous RAB 17. IB, immunoblotting; IP, immunoprecipitation. C, Expression of TSC1 and TBC1D7 in lung cancer cells. […] Left panels, The levels of TSC1 and TBC1D7 transcripts and proteins, detected by semiquantitative RT-PCR analysis and western-blot analysis in LC319 cells transfected with si-TSC1. Right panels, The levels of TSC1 and TBC1D7 transcripts and proteins, detected by semiquantitative RT-PCR analysis and western-blot analysis in LC319 cells transfected with TSC1 expression vector. F, The levels of endogenous TSC1 and TBC1D7 proteins, detected by western blot analysis in LC319 cells that were initially transfected with si-TSC1, and were subsequently transfected with TSC1 expression vector 24 hours after the siRNA transfection. […]

Molecule	transcription level of TBC1D7 ([1]; LC319 cells treated with si-TSC1, semiquantitative RT-PCR)	TBC1D7 protein level [1]	TBC1D7 protein level ([1]; listed as siRNA against TSC1)	expression of the endogenous TSC1 ([1]; LC319 cells, in comparison to control siRNA (si-EGFP))	levels of p-rpS6 (Ser235/236) protein [2]	binding result [3]
si-TSC1: siRNA sequence against human TSC1: CGACACGGCUGAUAACUGA (SEQ ID NO: 20) (listed as RNA, chemistry not given here)	unchanged	decreased	Reduced levels	suppressed	not changed	–
B1	–	–	–	–	–	binds

— patent US20120010266A1, “TBC1D7 AS TUMOR MARKER AND THERAPEUTIC TARGET FOR CANCER” (Oncotherapy Science Inc.,, priority 2008, published 2012)
